The results in this text go back to DBAASP.

What all share (test): ≥ marks a high value that may be exact or a test limit, other limits are often not marked, values filed in µg/mL are converted to µM
The subject of assay [1] is Staphylococcus aureus ATCC 43300.
Assay [2] deals with Staphylococcus aureus ATCC 29213.
Assay [3] has as its system Escherichia coli ATCC 25922.
Assay [4] concerns Salmonella enterica subsp. enterica serovar Enteritidis.
Assay [5] relates to Yersinia enterocolitica.
Assay [6] deals with Salmonella sp.
Assay [7] concerns Escherichia coli.
Assay [8] concerns Acinetobacter baumannii CCARM 12035.
The test system of assay [9] is Enterococcus faecalis KCTC 2011.
The test system of assay [10] is Pseudomonas aeruginosa KCTC 1637.
For assay [11], the system named is Bacillus subtilis KCTC 3068.
Assay [12] concerns Escherichia coli KCTC 1682.
Assay [13] has as its system Staphylococcus aureus KCTC 1621.
For assay [14], the system named is Pseudomonas aeruginosa CCARM 2095.
Assay [15] concerns Escherichia coli CCARM 1229.
Assay [16] has as its system Salmonella typhimurium CCARM 8009.
The test system of assay [17] is Salmonella typhimurium KCTC 1926.
For assay [18], the system named is Staphylococcus aureus ST88.
Assay [19] deals with Bacillus subtilis 168 HT.
In assay [20] the test system is Escherichia coli K12 MG1655.
Assay [21] has as its system Staphylococcus haemolyticus 527.
The subject of assay [22] is Pseudomonas aeruginosa ATCC 9027.
The test system of assay [23] is Candida albicans ATCC 10231.
Assay [24] concerns Staphylococcus aureus ATCC 25923.
Assay [25] has as its system Enterococcus faecalis PCM 2673.
Assay [26] relates to Streptococcus uberis.
Assay [27] relates to Staphylococcus epidermidis ATCC 14990.
In assay [28] the test system is Leuconostoc lactis.
Assay [29] concerns Micrococcus luteus ATCC 9341.
Assay [30] has as its system Batrachochytrium dendrobatidis.

In brackets after ≈: the same amount, converted by molar mass. A value given as a limit tells only on which side of the number the result lay.

For the compound `CC[C@H](C)[C@H](NC(=O)[C@H](CCCCN)NC(=O)[C@@H](NC(=O)[C@H](CCC(N)=O)NC(=O)[C@@H](N)CCCN=C(N)N)[C@@H](C)CC)C(=O)N[C@@H](Cc1c[nH]c2ccccc12)C(=O)N[C@@H](CCCN=C(N)N)C(=O)N[C@@H](CCCN=C(N)N)C(=O)N[C@@H](CCSC)C(=O)N[C@@H](CCCCN)C(=O)N[C@@H](Cc1c[nH]c2ccccc12)C(=O)N[C@@H](CCCCN)C(=O)N[C@@H](CCCCN)C(N)=O` [RQIKIWRRMKWKK], the MIC (in general, the smallest concentration in the dilution series that meets the test's criterion for growth inhibition) in assay [1] is 13.5 µM (≈ 25 µg/mL); in assay [2] it was 26.9 µM (≈ 50 µg/mL); in [3] it was 3.37 µM (≈ 6.25 µg/mL); in assay [4], 6.73 µM (≈ 12.5 µg/mL); in assay [5], 3.37 µM (≈ 6.25 µg/mL); in [6] it was 2.69 µM (≈ 5 µg/mL). In assay [7], this compound gave a minimum inhibitory concentration (MIC) of 3.01 µM (≈ 5.59 µg/mL).

Consider `CC[C@H](C)[C@H](NC(=O)CNC(=O)[C@H](CC(=O)O)NC(=O)[C@H](CCCN=C(N)N)NC(=O)[C@@H](NC(=O)[C@H](CC(N)=O)NC(=O)[C@H](CCCN=C(N)N)NC(=O)CNC(=O)[C@@H](NC(=O)[C@H](CCCCN)NC(=O)[C@H](CCC(=O)O)NC(=O)[C@@H](NC(=O)[C@H](CCCCN)NC(=O)[C@H](CCCCN)NC(=O)[C@H](Cc1ccccc1)NC(=O)[C@@H](NC(=O)[C@H](CCCCN)NC(=O)[C@H](C)NC(=O)[C@@H](N)CCCN=C(N)N)[C@@H](C)CC)[C@@H](C)CC)C(C)C)C(C)C)C(=O)N[C@H](C(=O)N[C@@H](CCCCN)C(=O)N[C@@H](C)C(N)=O)[C@@H](C)CC` [RAKIFKKIEKVGRNVRDGIIKA], for which the MIC in assay [8] was 8 µM (≈ 20.3 µg/mL); in assay [9] it was at least 128 µM; in [10], 4 µM (≈ 10.2 µg/mL); in [11], at least 32 µM; in [12], 2 µM (≈ 5.08 µg/mL); in [13], at least 32 µM. Also, the MIC in assay [14] amounted to 4 µM (≈ 10.2 µg/mL); in assay [15], 2 µM (≈ 5.08 µg/mL); in assay [16] it was 2 µM (≈ 5.08 µg/mL); in assay [17], 4 µM (≈ 10.2 µg/mL).

On to `CC[C@H](C)[C@H](NC(=O)[C@H](CC(C)C)NC(=O)[C@@H](N)C(C)C)C(=O)N[C@@H](CCCN=C(N)N)C(=O)NCC(=O)N[C@@H](CC(C)C)C(=O)N[C@H](C(=O)N[C@@H](Cc1cnc[nH]1)C(=O)N[C@@H](CCSC)C(=O)N[C@@H](CC(C)C)C(=O)N[C@@H](CCCN=C(N)N)C(=O)NCC(=O)NCC(=O)O)[C@@H](C)CC` [VLIRGLIHMLRGG], for which the minimum inhibitory concentration (MIC) was at least 100 µM in [18], 22.4 µM (≈ 32.1 µg/mL) in assay [19], at least 100 µM in [20] and at least 100 µM in assay [21].

Take `CC[C@H](C)[C@H](NC(=O)CNC(=O)[C@H](CC(=O)O)NC(=O)[C@H](CCCN=C(N)N)NC(=O)[C@@H](NC(=O)[C@H](CC(N)=O)NC(=O)[C@H](CCCN=C(N)N)NC(=O)CNC(=O)[C@@H](NC(=O)[C@H](CCCCN)NC(=O)[C@H](CCC(=O)O)NC(=O)[C@@H](NC(=O)[C@H](CCCCN)NC(=O)[C@H](CCCCN)NC(=O)[C@H](Cc1c[nH]c2ccccc12)NC(=O)[C@@H](NC(=O)[C@H](CCCCN)NC(=O)[C@H](Cc1ccccc1)NC(=O)[C@@H](N)CCCN=C(N)N)[C@@H](C)CC)[C@@H](C)CC)C(C)C)C(C)C)C(=O)N[C@H](C(=O)N[C@@H](CCCCN)C(=O)N[C@@H](C)C(N)=O)[C@@H](C)CC` [RFKIWKKIEKVGRNVRDGIIKA]: the MIC in assay [8] was 4 µM (≈ 10.6 µg/mL); in assay [9], at least 64 µM; in [10], 2 µM (≈ 5.31 µg/mL); in assay [11] it was 8 µM (≈ 21.2 µg/mL); in assay [12], 1 µM (≈ 2.65 µg/mL); in assay [13], 16 µM (≈ 42.5 µg/mL). Further, the MIC in assay [14], in assay [15], in [16] and in assay [17] was 2 µM (≈ 5.31 µg/mL) in each case.

Turning to `CC[C@H](C)[C@H](NC(=O)[C@H](Cc1cnc[nH]1)NC(=O)[C@@H](NC(=O)[C@H](CC(C)C)NC(=O)[C@@H](NC(=O)[C@@H](NC(=O)[C@H](CCCN=C(N)N)NC(=O)[C@H](CC(C)C)NC(=O)[C@H](Cc1c[nH]c2ccccc12)NC(=O)[C@H](CO)NC(=O)[C@H](CCCCN)NC(=O)[C@@H](NC(=O)[C@H](CC(C)C)NC(=O)[C@H](Cc1cnc[nH]1)NC(=O)[C@@H](NC(=O)[C@@H](NC(=O)[C@@H](NC(=O)[C@H](Cc1cnc[nH]1)NC(=O)[C@H](CC(C)C)NC(=O)[C@H](CCC(N)=O)NC(=O)[C@H](CCCCN)NC(=O)[C@H](Cc1ccccc1)NC(=O)[C@H](CO)NC(=O)[C@H](CCCCN)NC(=O)CNC(=O)[C@H](CCCCN)NC(=O)[C@@H](N)CCCCN)[C@@H](C)CC)[C@@H](C)CC)C(C)C)C(C)C)[C@@H](C)O)[C@@H](C)CC)[C@@H](C)O)C(=O)O` [KKGKSFKQLHIIVHLVKSWLRTILTHI], the MIC in assay [18] was found to be 19.9 µM (≈ 64.2 µg/mL); in assay [19] it was 10 µM (≈ 32.2 µg/mL); in [20], 10 µM (≈ 32.2 µg/mL); in [21], 10 µM (≈ 32.2 µg/mL).

Regarding `CC[C@H](C)[C@H](NC(=O)[C@H](C)NC(=O)[C@H](Cc1ccccc1)NC(=O)[C@H](CC(C)C)NC(=O)CN)C(=O)N[C@H](C(=O)N[C@@H](CCCCN)C(=O)N[C@@H](CCCCN)C(=O)N[C@H](C(=O)N[C@@H](C)C(=O)N[C@@H](CCC(=O)O)C(=O)N[C@@H](CO)C(=O)N[C@@H](Cc1ccccc1)C(N)=O)[C@@H](C)CC)[C@@H](C)CC` [GLFAIIKKIAESF], the MIC in [22] was 44.5 µM (≈ 64 µg/mL); in assay [23], 44.5 µM (≈ 64 µg/mL); in assay [24] it was 11.1 µM (≈ 16 µg/mL); in [25], 22.3 µM (≈ 32 µg/mL); in [3] it was 5.57 µM (≈ 7.99 µg/mL).

As for `CC[C@H](C)[C@H](NC(=O)[C@H](CC(=O)O)NC(=O)[C@H](Cc1ccccc1)NC(=O)[C@H](CC(C)C)NC(=O)CN)C(=O)N[C@H](C(=O)N[C@@H](CCCCN)C(=O)N[C@@H](CCCCN)C(=O)N[C@@H](C)C(=O)N[C@@H](C)C(=O)N[C@@H](CCC(=O)O)C(=O)N[C@@H](CO)C(=O)N[C@@H](Cc1ccccc1)C(N)=O)[C@@H](C)CC` [GLFDIIKKAAESF], the MIC in [22] is over 356 µM; in [23], 356 µM (≈ 512 µg/mL); in assay [24], over 356 µM; in assay [25], at least 89 µM; in assay [3] it was 356 µM (≈ 512 µg/mL).

In the case of `CC[C@H](C)[C@H](NC(=O)[C@H](CC(C)C)NC(=O)[C@H](Cc1cnc[nH]1)NC(=O)CNC(=O)[C@@H](NC(=O)[C@@H](NC(=O)CNC(=O)[C@@H](NC(=O)[C@@H](NC(=O)[C@H](CCCCN)NC(=O)[C@@H]1CCCN1C(=O)[C@H](CC(C)C)NC(=O)[C@H](Cc1ccccc1)NC(=O)[C@H](CO)NC(=O)[C@H](CC(C)C)NC(=O)[C@H](CC(C)C)NC(=O)CN)C(C)C)[C@@H](C)CC)C(C)C)[C@@H](C)CC)C(=O)N[C@@H](Cc1cnc[nH]1)C(=O)N1CCC[C@H]1C(=O)N1CCC[C@H]1C(=O)N[C@@H](CO)C(=O)O` [GLLSFLPKVIGVIGHLIHPPS], the MIC was at least 50 µM in [26], at least 100 µM in assay [27], 12 µM (≈ 26.3 µg/mL) in [28] and at least 100 µM in assay [29].

In turn, `CC[C@H](C)[C@H](NC(=O)CNC(=O)[C@H](CO)NC(=O)[C@H](CC(C)C)NC(=O)[C@@H](NC(=O)[C@H](CCCN=C(N)N)NC(=O)CNC(=O)[C@@H](NC(=O)[C@H](CC(C)C)NC(=O)[C@@H]1CCCN1C(=O)[C@H](CC(C)C)NC(=O)[C@@H](N)Cc1c[nH]c2ccccc12)[C@@H](C)CC)C(C)C)C(=O)N[C@@H](CC(C)C)C(N)=O` [WLPLIGRVLSGIL] had an MIC in [30] of 25.1 µM (≈ 36 µg/mL).
